PMC6151491, “In Vitro Evaluation of Third Generation PAMAM Dendrimer Conjugates” (Molecules : A Journal of Synthetic Chemistry and Natural …, 2017)

Tested on: Caco-2 cells
Test: Lactate dehydrogenase leakage (LDH) assay
Assay type: cell-based, Human
Conditions: 3 h incubation, mean ± S.D., n = 4, read-out: IC50 (viability of Caco-2 cells, LDH assay)
Description: Human intestinal adenocarcinoma cells (Caco-2) (passage 110–120) were seeded at 10,000 cells/well in 96-well plates and maintained at 37 °C in an atmosphere of 5% CO2 and 95% relative humidity in Dulbecco’s Modified Eagle’s Medium (DMEM) supplemented with 1% foetal bovine serum, 1% non-essential amino acids, 50 IU/mL penicillin. and […] streptomycin. After 24 h the medium was removed and the cells were washed in phosphate buffered saline and 200 µL Hanks Balanced Salt Solution (HBSS) containing G3 PAMAM dendrimer, conjugates or G0 PAMAM dendrimer at different concentrations (concentrations were calculated using the average molecular weight (Table 1) for each conjugate as a whole macromolecule). Caco-2 cell monolayers were also treated with blank HBSS and 1% Triton X-100 as low and high controls, respectively. After 3 h of incubation at 37 °C, 100 µL/well supernatant was removed carefully and transferred into corresponding wells of an optically clear 96-well flat bottom microplate. LDH leakage in the compartment was quantified using an LDH assay kit.
The percentage was calculated using the following equation:Cytotoxicity (%) = ((exp. − low control)/(high control − low control)) × 100 where exp. is the experimental value.

## lauroyl-G0-diethylene glycol-naproxen [L-G0-deg-NAP]
  IC50: 3.18 ± 0.455 mM
